# Experimental data from patent publication US11884661B2, “3-substituted propionic acids as αV integrin inhibitors” (BRISTOL-MYERS SQUIBB COMPANY, priority 2016, dated 2024).
# Target: T1, human αVβ6 (Homo sapiens, UniProt P06756+P18564)
# T1 construct: purchased R & D systems 3817-AV
# Experiment: human αVβ6 HTRF binding assay
# Conditions: recombinant human αVβ6 integrin, FITC-conjugated fibronectin
# Protocol: All binding assays used the HTRF (homogeneous time resolved fluorescence) technology from Cisbio International, therefore all assays are described as HTRF binding assays. The assay results for the Examples are listed above together with the characterization data. The HTRF binding assays are established for the following integrins: human αVβ6, human αVβ1, human αVβ3, human αVβ5, and human αVβ8. All assays used the following assay buffer: 20 mM Tris, pH 7.4, 1 mM MgCl2, 1 mM MnCl2, 0.01% Tween 20, and 0.01% BSA. Alternatively, a SPA-based assay was used for evaluation of receptor binding.
# The following describes the components and a representative procedure for the human αVβ6 HTRF binding assay: Recombinant human αVβ6 Integrin (R & D systems, 3817-AV) was biotinylated. Biotinylated human αVβ6 Integrin was added to assay vessel at a final concentration of 1.25 nM. FITC-conjugated fibronectin (Cytoskeleton, FNR02) was then added at the final concentration of 5 nM. The mixture was centrifuged at 600 rpm for three minutes using Thermo Fisher Heraeus Multifuge X3 centrifuge and then incubated at RT for an hour. Streptavidin Terbium (Cisbio international 610STLB) was then added at the final concentration of 0.625 nM. The resulting mixture was centrifuged at 600 rpm for three minutes using Thermo Fisher Heraeus Multifuge X3 centrifuge and then incubated at room temperature overnight in dark before reading HTRF signals.
# T1 sequence (P06756 31-992 limits assumed): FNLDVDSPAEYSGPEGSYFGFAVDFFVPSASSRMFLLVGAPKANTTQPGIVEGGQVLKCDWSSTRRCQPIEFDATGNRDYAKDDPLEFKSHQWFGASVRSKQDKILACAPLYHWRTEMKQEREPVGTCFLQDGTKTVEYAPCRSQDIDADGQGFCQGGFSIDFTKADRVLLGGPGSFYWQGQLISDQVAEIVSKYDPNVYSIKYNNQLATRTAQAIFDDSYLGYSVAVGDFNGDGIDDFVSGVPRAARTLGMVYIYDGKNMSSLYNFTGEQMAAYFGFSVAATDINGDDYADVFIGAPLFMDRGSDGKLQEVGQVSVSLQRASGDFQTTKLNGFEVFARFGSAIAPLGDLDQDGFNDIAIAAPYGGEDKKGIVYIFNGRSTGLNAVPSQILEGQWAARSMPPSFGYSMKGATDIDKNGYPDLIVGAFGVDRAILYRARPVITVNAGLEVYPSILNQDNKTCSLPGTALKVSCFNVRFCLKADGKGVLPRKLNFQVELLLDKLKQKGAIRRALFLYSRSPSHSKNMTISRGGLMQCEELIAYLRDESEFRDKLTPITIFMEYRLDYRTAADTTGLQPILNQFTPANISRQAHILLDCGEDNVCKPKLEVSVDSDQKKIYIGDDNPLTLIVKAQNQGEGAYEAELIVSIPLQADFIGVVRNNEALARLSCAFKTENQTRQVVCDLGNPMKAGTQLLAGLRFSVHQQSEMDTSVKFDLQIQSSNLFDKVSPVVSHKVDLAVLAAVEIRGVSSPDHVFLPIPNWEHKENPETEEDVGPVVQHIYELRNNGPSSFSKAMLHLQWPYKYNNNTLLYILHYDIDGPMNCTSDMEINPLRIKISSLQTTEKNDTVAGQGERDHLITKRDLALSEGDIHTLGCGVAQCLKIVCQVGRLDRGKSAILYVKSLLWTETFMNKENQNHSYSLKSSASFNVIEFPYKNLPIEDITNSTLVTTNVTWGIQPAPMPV
# T1 sequence (P18564 22-707 limits assumed): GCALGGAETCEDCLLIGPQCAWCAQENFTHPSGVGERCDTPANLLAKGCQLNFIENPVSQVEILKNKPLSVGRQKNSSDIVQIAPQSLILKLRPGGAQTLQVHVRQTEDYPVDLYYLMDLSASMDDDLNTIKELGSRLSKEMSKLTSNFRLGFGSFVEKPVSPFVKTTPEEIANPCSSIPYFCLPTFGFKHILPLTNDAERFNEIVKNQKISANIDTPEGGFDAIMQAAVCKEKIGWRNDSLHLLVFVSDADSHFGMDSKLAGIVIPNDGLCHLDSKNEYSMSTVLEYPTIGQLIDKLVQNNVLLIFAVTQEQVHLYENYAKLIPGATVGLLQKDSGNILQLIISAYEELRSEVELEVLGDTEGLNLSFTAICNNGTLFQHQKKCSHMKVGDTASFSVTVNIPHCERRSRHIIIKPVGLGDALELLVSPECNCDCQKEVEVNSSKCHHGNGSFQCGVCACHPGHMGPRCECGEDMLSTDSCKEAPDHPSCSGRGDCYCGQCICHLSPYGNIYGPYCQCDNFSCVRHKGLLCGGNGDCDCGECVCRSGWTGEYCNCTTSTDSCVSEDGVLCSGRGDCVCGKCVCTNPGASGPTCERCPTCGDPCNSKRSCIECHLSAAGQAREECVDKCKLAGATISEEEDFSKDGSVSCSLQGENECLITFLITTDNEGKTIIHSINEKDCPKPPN
row,Compound,IC50 [nM]
1,"Cc1ncc([C@@H](CC(=O)O)n2cc(F)c(CCCc3ccc4c(n3)NCCC4)n2)cn1 [Example 114, (R)-3-(4-fluoro-3-(3-(5,6,7,8-tetrahydro-1,8-naphthyridin-2-yl)propyl)-1H-pyrazol-1-yl)-3-(2-methylpyrimidin-5-yl)propanoic acid]",4800
2,"COc1ncc(C(CC(=O)O)n2ccc(CCCc3ccc4c(n3)NCCCC4)n2)cn1 (single isomer, unassigned) [Example 105]",470
3,"CN(C)C(=O)c1cccc(C(CC(=O)O)c2nc(CCCCc3ccc4c(n3)NCCC4)cs2)c1 (single isomer, unassigned) [Example 118, 3-(3-(dimethylcarbamoyl)phenyl)-3-(4-(4-(5,6,7,8-tetrahydro-1,8-naphthyridin-2-yl)butyl)thiazol-2-yl)propanoic acid]",1.9
4,"Cc1ncc(C(CC(=O)O)n2ccc(CCCc3ccc4c(n3)NCCC4)n2)cn1 (racemic) [Example 22, (±)-3-(2-Methylpyrimidin-5-yl)-3-(3-(3-(5,6,7,8-tetrahydro-1,8-naphthyridin-2-yl)propyl)-1H-pyrazol-1-yl)propanoic acid]",64
5,"COc1ccc(C(CC(=O)O)n2ccc(CCCc3ccc4c(n3)NCCC4)n2)cc1F (racemic) [Example 49, (±)-3-(3-Fluoro-4-methoxyphenyl)-3-(3-(3-(5,6,7,8-tetrahydro-1,8-naphthyridin-2-yl)propyl)-1H-pyrazol-1-yl)propanoic acid]",24
6,"COc1ncc(C(CC(=O)O)n2ccc(CCCc3ccc4c(n3)NCCCC4)n2)cn1 (racemic) [Example 103, (±)-3-(2-methoxypyrimidm-5-yl)-3-(3-(3-(6,7,8,9-tetrahydro-5H-pyrido| 2,3-6 |azepin-2-yl)propyl)-1H-pyrazol-1-yl)propanoic acid]",30
7,"COc1ccc(C(CC(=O)O)c2ccn(CCCc3ccc4c(n3)NCCC4)n2)cn1 (stereo not shown) [Example 113, 3-(6-methoxypyridin-3-yl)-3-(1-(3-(5,6,7,8-tetrahydro-1,8-naphthyridin-2-yl)propyl)-1H-pyrazol-3-yl)propanoic acid]",35
8,"CN(C)C(=O)c1cccc(C(CC(=O)O)c2nc(CCCc3ccc4c(n3)NCCC4)cs2)c1 (single isomer, unassigned) [Example 139, 3-(3-(dimethylcarbamoyl)phenyl)-3-(4-(3-(5,6,7,8-tetrahydro-1,8-naphthyridin-2-yl)propyl)thiazol-2-yl)propanoic acid]",34
9,"COc1cncc(C(CC(=O)O)n2nccc2CCCc2ccc3c(n2)NCCCC3)c1 (racemic) [Example 108, (±)-3-(5-methoxypyridin-3-yl)-3-(5-(3-(6,7,8,9-tetrahydro-5H-pyrido[2,3-b]azepin-2-yl)propyl)-1H-pyrazol-1-yl)propanoic acid]",170
10,"Cc1cncc(C(CC(=O)O)n2ccc(CCCc3ccc4c(n3)NCCC4)n2)c1 (single isomer, unassigned) [Example 70, 3-(5-methylpyridin-3-yl)-3-{3-[3-(5,6,7,8-tetrahydro-1,8-naphthyridin-2-yl)propyl]-1H-pyrazol-1-yl}propanoic acid]",4900
11,"CN(C)c1ccc(C(CC(=O)O)c2nc(CCCCc3ccc4c(n3)NCCC4)cs2)cn1 (single isomer, unassigned) [Example 122, 3-(6-(dimethylamino)pyridin-3-yl)-3-(4-(4-(5,6,7,8-tetrahydro-1,8-naphthyridin-2-yl)butyl)thiazol-2-yl)propanoic acid]",3.5
12,"Cc1ncc([C@H](CC(=O)O)n2ccc(CCC[C@@H]3CCc4cccnc4N3)n2)cn1 [Example 88, (S)-3-(2-methylpyrimidin-5-yl)-3-(3-(3-((R)-1,2,3,4-tetrahydro-1,8-naphthyridin-2-yl)propyl)-1H-pyrazol-1-yl)propanoic acid]",170
13,"O=C(O)C[C@@H](c1ccc(OCc2ccccc2)nc1)n1ccc(CCCc2ccc3c(n2)NCCC3)n1 [Example 110, (S)-3-(6-(benzyloxy)pyridin-3-yl)-3-(3-(3-(5,6,7,8-tetrahydro-1,8-naphthyridin-2-yl)propyl)-1H-pyrazol-1-yl)propanoic acid]",9.3
14,"COc1ccc(C(CC(=O)O)n2ccc(CCCc3ccc4c(n3)NCCCC4)n2)cn1 (single isomer, unassigned) [Example 101, 3-(6-methoxypyridin-3-yl)-3-(3-(3-(6,7,8,9-tetrahydro-5H-pyrido[2,3-b]azepin-2-yl)propyl)-1H-pyrazol-1-yl)propanoic acid]",4.3
15,"CN(C)c1ccc(C(CC(=O)O)c2nc(CCCc3ccc4c(n3)NCCC4)cs2)cn1 (single isomer, unassigned) [Example 133, 3-(6-(dimethylamino)pyridin-3-yl)-3-(4-(3-(5,6,7,8-tetrahydro-1,8-naphthyridin-2-yl)propyl)thiazol-2-yl)propanoic acid]",86
16,"COc1ccc(C(CC(=O)O)c2ncc(CCCCc3ccc4c(n3)NCCC4)s2)cn1 (single isomer, unassigned) [Example 17, 3-(6-Methoxypyridin-3-yl)-3-(5-(4-(5,6,7,8-tetrahydro-1,8-naphthyridin-2-yl)butyl)thiazol-2-yl)propanoic acid]",16
17,"O=C(O)CC(c1cnc(N2CCC2)nc1)n1nccc1CCCc1ccc2c(n1)NCCC2 (racemic) [Example 53, (±)-3-(2-(Azetidin-1-yl)pyrimidin-5-yl)-3-(5-(3-(5,6,7,8-tetrahydro-1,8-naphthyridin-2-yl)propyl)-1H-pyrazol-1-yl)propanoic acid]",140
18,"COc1ccc(C(CC(=O)O)c2ncc(CCCc3ccc4c(n3)NCCC4)s2)cn1 (single isomer, unassigned) [Example 20, 3-(6-Methoxypyridin-3-yl)-3-(5-(3-(5,6,7,8-tetrahydro-1,8-naphthyridin-2-yl)propyl)thiazol-2-yl)propanoic acid]",18
19,"O=C(NC(Cc1cnn(CCCc2ccc3c(n2)NCCC3)c1)C(=O)O)OCc1ccccc1 (racemic) [Example 6, (±)-2-(((Benzyloxy)carbonyl)amino)-3-(1-(3-(5,6,7,8-tetrahydro-1,8-naphthyridin-2-yl)propyl)-1N-pyrazol-4-yl)propanoic acid]",80

# Continued, values first:
row,IC50 [nM],Compound
1,67,"COc1ccc(C(CC(=O)O)c2nc(CCCCc3ccc4c(n3)NCCC4)cn2C)cc1F (single isomer, unassigned) [Example 169, 3-(3-fluoro-4-methoxyphenyl)-3-(1-methyl-4-(4-(5,6,7,8-tetrahydro-1,8-naphthyridin-2-yl)butyl)-1H-imidazol-2-yl)propanoic acid]"
2,12,"COc1ccc(C(CC(=O)O)c2nc(CCCC3CCc4cccnc4N3)cs2)cc1F (single isomer, unassigned) [Example 161, 3-(3-fluoro-4-methoxyphenyl)-3-(4-(3-(1,2,3,4-tetrahydro-1,8-naphthyridin-2-yl)propyl)thiazol-2-yl)propanoic acid]"
3,3.7,"CN(C)C(=O)c1cccc(C(CC(=O)O)c2nc(CCCc3ccc4c(n3)NCCC4)cs2)c1 (single isomer, unassigned) [Example 140, 3-(3-(dimethylcarbamoyl)phenyl)-3-(4-(3-(5,6,7,8-tetrahydro-1,8-naphthyridin-2-yl)propyl)thiazol-2-yl)propanoic acid]"
4,66,"COc1ccc(C(CC(=O)O)c2nc(CCCc3ccc4c(n3)NCCC4)co2)cc1F (single isomer, unassigned) [Example 179, 3-(3-fluoro-4-methoxyphenyl)-3-(4-(3-(5,6,7,8-tetrahydro-1,8-naphthyridin-2-yl)propyl)oxazol-2-yl)propanoic acid]"
5,140,"COc1ncc(C(CC(=O)O)c2nc(CCCc3ccc4c(n3)NCCC4)cs2)cn1 (single isomer, unassigned) [Example 146, 3-(2-methoxypyrimidin-5-yl)-3-(4-(3-(5,6,7,8-tetrahydro-1,8-naphthyridin-2-yl)propyl)thiazol-2-yl)propanoic acid]"
6,88,"COc1ncc(C(CC(=O)O)c2nc(CCCCc3ccc4c(n3)NCCC4)cs2)cn1 (single isomer, unassigned) [Example 143, 3-(2-Methoxypyrimidin-5-yl)-3-(4-(4-(5,6,7,8-tetrahydro-1,8-naphthyridin-2-yl)butyl)thiazol-2-yl)propanoic acid]"
7,170,"O=C(O)CC(c1cnc2ccccc2c1)n1ncc(CCCc2ccc3c(n2)NCCC3)n1 (single isomer, unassigned) [Example 174, 3-(quinolin-3-yl)-3-(4-(3-(5,6,7,8-tetrahydro-1,8-naphthyridin-2-yl)propyl)-2H-1,2,3-triazol-2-yl)propanoic acid]"
8,27,"COc1ccc(C(CC(=O)O)c2nc(CCCC3CCc4cccnc4N3)cs2)cn1 (single isomer, unassigned) [Example 157, 3-(6-methoxypyridin-3-yl)-3-(4-(3-(1,2,3,4-tetrahydro-1,8-naphthyridin-2-yl)propyl)thiazol-2-yl)propanoic acid]"
9,2.9,"COc1ccc(C(CC(=O)O)c2nc(CCCc3ccc4c(n3)NCCC4)cs2)cc1OC (single isomer, unassigned) [Example 141, 3-(3,4-dimethoxyphenyl)-3-(4-(3-(5,6,7,8-tetrahydro-1,8-naphthyridin-2-yl)propyl)thiazol-2-yl)propanoic acid]"
